The subject of one data set is HEL cells. Nature of the data set: Minimum cytotoxic concentration, alteration of cell morphology in HEL cells. The class given is cell-based, human. The conditions noted are these: for Minimum cytotoxic concentration (HEL): Table 2, microscopically detectable alteration of cell morphology; for Minimum cytotoxic concentration (MCC) (HEL): Table 1, microscopically detectable alteration of normal cell morphology.

The next data set has as its system TK+ VZV strain YS. Nature of the data set: Plaque reduction, TK+ VZV strain YS in HEL cells. In kind it is cell-based, varicella-zoster virus. To be noted: Human alphaherpesvirus 3, HEL, read-out: EC50 TK+ VZV strains YS.
For a further data set, the system named is HIV-1. To be noted: cited from earlier work.

pEC50: −log10 of the molar value.

With `Nc1nc2c(ncn2COCCO)c(=O)[nH]1` [Acyclovir, reference compound], the “Minimum cytotoxic concentration (HEL)” value with HEL cells was above 400 µM. A word on the pEC50: it is −log10 of the EC50, conventionally taken in molar units. For the compound `O=c1[nH]c(=O)n([C@H]2C[C@H](O)[C@@H](CO)O2)cc1/C=C/Br` [Brivudin, reference compound], the pEC50 in the data set on TK+ VZV strain YS was 7.96. Moreover, the “Minimum cytotoxic concentration (HEL)” value in the data set with HEL cells is “⩾300 μM”. With `C[C@H](NP(=O)(OC[C@H]1O[C@@H](n2cc(I)c(=O)[nH]c2=O)C(F)(F)[C@@H]1O)Oc1ccccc1)C(=O)OCc1ccccc1` (stereo partly drawn) [Compound 16, 2′-Deoxy-2′,2′-difluoro-D-5-iodouridine 5′-O-phenyl-(benzoxy-alaninyl)-phosphate], the “Minimum cytotoxic concentration (MCC) (HEL)” value in the data set with HEL cells was above 100 µM.

On to `COC(=O)[C@H](C)NP(=O)(OC[C@H]1O[C@@H](n2cc(I)c(=O)[nH]c2=O)C(F)(F)[C@@H]1O)Oc1ccccc1` (stereo partly drawn) [Compound 17, 2′-Deoxy-2′,2′-difluoro-D-5-iodouridine 5′-O-phenyl-(methoxy-alaninyl)-phosphate], for which, in the data set on HEL cells, the “Minimum cytotoxic concentration (MCC) (HEL)” value was above 100 µM and the “Minimum cytotoxic concentration (HEL)” value is above 50 µM. In the same order, the values of `C[C@H](NP(=O)(OC[C@H]1O[C@@H](n2cc(Br)c(=O)[nH]c2=O)C(F)(F)[C@@H]1O)Oc1ccccc1)C(=O)OCc1ccccc1` (stereo partly drawn) [Compound 20, 2′-Deoxy-2′,2′-difluoro-D-5-bromouridine 5′-O-phenyl-(benzoxy-alaninyl)-phosphate] are above 100 µM and above 50 µM.

As to `C[C@H](NP(=O)(OC[C@H]1O[C@@H](n2cc(Cl)c(=O)[nH]c2=O)C(F)(F)[C@@H]1O)Oc1ccccc1)C(=O)OCc1ccccc1` (stereo partly drawn) [Compound 21, 2′-Deoxy-2′,2′-difluoro-D-5-chlorouridine 5′-O-phenyl-(benzoxy-alaninyl)-phosphate], in the data set on HEL cells, the “Minimum cytotoxic concentration (MCC) (HEL)” value was above 100 µM and the “Minimum cytotoxic concentration (HEL)” value was above 50 µM.

With `Nc1nc(O)c2ncn(COC(CO)CO)c2n1` [Ganciclovir, reference compound], the “Minimum cytotoxic concentration (MCC) (HEL)” value in the data set with HEL cells is above 100 µM.

Turning to `Nc1ncnc2c1ncn2C1OC(CO)C(O)C1(F)F` (stereo not drawn) [adenine derivative], the “activity against HIV-1 in PBM cells” value with HIV-1 was 3.4 µM.
